# Experiments:
# [1] = Pharmacokinetics assay in rats, intragastric; assay type: in vivo; details: both sexes, rat, plasma, po, SD rats, 25 mg/kg, read-out: Area Under Curve AUC
# Description: The pharmacokinetic behavior of the compounds of the present invention was studied and evaluated in rats. 8 healthy adult SD rats, male and female in half, were purchased from SINO-BRITSH SIPPR/BK LAB. ANIMAL LTD., CO, License number: SCXK (Shanghai) 2003-0002 The right amount of compounds were weighted and grinded with 0.5% Sodium Carboxymethyl cellulose uniformly, suspended them with 1% tween 80 to 2.5 mg/mL of suspension before use. […] 8 Healthy adult SD rats, male and female in half, were divided into 2 groups. After an overnight fast, the rats were administered intragastrically at a dose of 25.0 mg/kg. […] The plasma samples were stored at −20° C. until analysis. The rats were fed 2 hours after administration. 50 μL of rat plasmas taken at various time points after administration were mixed with 50 μL of standard series solution to obtain plasma concentration of 50.0, 100, 200, 500, 1000, 2000, 5000 ng/mL. 150 μL, methanol was added and then the mixture was mixed for 3 minute using a vortexer and centrifuged for 10 minutes at 13,500 rpm. 10 μL of the supernatant was analyzed by LC-MS/MS. The main pharmacokinetic parameters were calculated by DAS 2.0 software.
# [2] = test system: xenografts of Calu-3 human lung cancer; test: Therapeutic effects against xenografts of Calu-3 human lung cancer in nude mice; assay type: in vivo, BALB/cA-nude mice
# Description: BALB/cA-nude mice, 6 to 7 weeks old, ♀, purchased from Slaccas Experimental Animal LTD., CO.
# Nude mice were hypodermic inoculated Calu-3 human lung cancer cell. After tumors grew to 150-250 mm^3, mice were randomly divided into teams (d0).
# The volume of tumors and the weigh of the mice were measured and recorded for 2-3 times per week.
# The calculation formula of the volume of tumor (V) is: V=½×a×b^2, a: length of tumor, b: width of tumor.
# [3] = high dose (200 mg/kg), nude mice, Calu-3 xenograft
SMILES,AUC [1],"completely degraded fraction of the tumor [2, 3]","reduced fraction of the tumor volume [2, 3]",growth of Calu-3 human lung cancer ([2]; nude mice xenograft)
"CCOc1cc2ncc(C#N)c(Nc3ccc(OCc4ccccn4)c(Cl)c3)c2cc1NC(=O)/C=C/[C@@H]1CCCN1C [Example 1, (E)-N-[4-[[3-Chloro-4-(2-pyridylmethoxy)phenyl]amino]-3-cyano-7-ethoxy-6-quinolyl]-3-[(2S)-1-methylpyrrolidin-2-yl]prop-2-enamide]",52600 ± 39000 ng·h/mL,⅙,⅙,markedly inhibited
"CCOc1cc2ncc(C#N)c(Nc3ccc(OCc4ccccn4)c(Cl)c3)c2cc1NC(=O)/C=C/[C@H]1CCCN1C [Example 5, (E)-N-[4-[[3-Chloro-4-(2-pyridylmethoxy)phenyl]amino]-3-cyano-7-ethoxy-6-quinolyl]-3-[(2R)-1-methylpyrrolidin-2-yl]prop-2-enamide]",52800 ± 23600 ng·h/mL,–,–,–

# From patent publication US9358227B2, “Pharmaceutical uses of 6-amino quinazoline or 3-cyano quinoline derivatives” (Jiangsu Hengrui Medicine Co., Ltd., priority 2009, dated 2016)
